Source: BindingDB's records for doi:10.1016/j.bmcl.2008.12.086 (Columbia University, 2009)

Legend:
Transcription factor p65 [1] = biological target: T1, Transcription factor p65 (Human, UniProt Q04206); test: Potentiation of TNF-alpha-induced NF-kappaB p65 nuclear translocation in HUVEC cells by immunostaining
Transcription factor p65 [2] = biological target: T1, Transcription factor p65; test: Induction of NF-kappaB p65 nuclear translocation in HUVEC cells by immunostaining

T1 sequence (Q04206 whole entry): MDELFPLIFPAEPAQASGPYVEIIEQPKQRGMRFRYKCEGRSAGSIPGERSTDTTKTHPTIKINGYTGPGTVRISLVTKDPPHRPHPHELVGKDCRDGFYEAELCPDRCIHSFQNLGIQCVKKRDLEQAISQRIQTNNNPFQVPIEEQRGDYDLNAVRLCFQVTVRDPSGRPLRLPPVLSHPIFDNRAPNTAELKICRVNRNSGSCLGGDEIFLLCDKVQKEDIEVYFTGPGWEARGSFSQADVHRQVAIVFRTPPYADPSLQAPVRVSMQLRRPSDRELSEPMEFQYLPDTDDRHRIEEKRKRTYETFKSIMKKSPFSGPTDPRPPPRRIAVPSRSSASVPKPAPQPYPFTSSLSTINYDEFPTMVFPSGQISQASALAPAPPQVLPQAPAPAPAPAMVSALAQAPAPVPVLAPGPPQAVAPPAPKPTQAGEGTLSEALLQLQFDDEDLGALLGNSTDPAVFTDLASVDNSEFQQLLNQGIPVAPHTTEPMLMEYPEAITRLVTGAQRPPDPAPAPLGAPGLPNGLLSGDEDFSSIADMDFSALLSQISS

EC50 (Transcription factor p65 [1]) | EC50 (Transcription factor p65 [2]) | SMILES
380 nM | 1600 nM | COc1cccc2nc(-c3cccs3)nc(NN3C(=O)C=C(C)C3=O)c12 [1-(5-Methoxy-2-thiophen-2-yl-quinazolin-4-ylamino)-3-methyl-pyrrole-2,5-dione]
42000 nM | 9800 nM | COc1ccc2nc(-c3cccs3)nc(NN3C(=O)C=C(C)C3=O)c2c1 [1-(6-methoxy-2-(thiophen-2-yl)quinazolin-4-ylamino)-3-methyl-1H-pyrrole-2,5-dione]
310 nM | 2400 nM | COc1ccc(Cl)c2nc(-c3cccs3)nc(NN3C(=O)C=C(C)C3=O)c12 [1-(8-chloro-5-methoxy-2-(thiophen-2-yl)quinazolin-4-ylamino)-3-methyl-1H-pyrrole-2,5-dione]
